In assay [1] the target is T1, 5-HT1A serotonin receptor (Rattus norvegicus, UniProt P19327).
T1 construct: 44: 1685-1696, 1985; from tissue
T1 sequence (P19327 1-422): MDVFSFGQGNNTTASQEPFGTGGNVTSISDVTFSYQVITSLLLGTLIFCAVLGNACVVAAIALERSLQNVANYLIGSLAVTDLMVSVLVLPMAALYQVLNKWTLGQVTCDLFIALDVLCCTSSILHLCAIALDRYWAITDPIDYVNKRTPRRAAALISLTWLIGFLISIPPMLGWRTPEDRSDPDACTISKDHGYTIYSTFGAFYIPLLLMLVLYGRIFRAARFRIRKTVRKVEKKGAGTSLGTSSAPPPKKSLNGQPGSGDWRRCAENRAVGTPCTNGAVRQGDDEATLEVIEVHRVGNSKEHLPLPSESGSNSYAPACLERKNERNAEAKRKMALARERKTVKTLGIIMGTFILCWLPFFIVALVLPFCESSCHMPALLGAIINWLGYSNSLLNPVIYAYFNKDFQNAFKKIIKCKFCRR
Kind of assay: 5-HT1A receptor binding, displacement of [^3 H] 8-OH DPAT (Hall et al.). The settings on record: for inhibition at 0.1 µM / inhibition at 1 µM: read-out: Affinity for 5HT1A Receptor % Inhibition; for IC50: read-out: Affinity for 5HT1A Receptor IC50.
Description: 8-OH DPAT (dipropylaminotetralin) from the 5-HT1A serotonin receptor by the procedure of Hall et al., J. Neurochem.

In the next assay the target is T2, D2 dopamine receptor (Rattus norvegicus, UniProt P61169).
T2 construct: from tissue; host or cells: homogenized limbic brain tissue
The experiment in a line: D2 dopamine receptor binding, limbic brain tissue incubated with ^3 H-spiroperiodol. As to conditions: for inhibition at 1 µM: read-out: Affinity for D2 Receptor % Inhibition. On the procedure: The D2 dopamine receptor binding study was in accordance with a modification of the procedure of Field et al., Brain Res., 136, pp. 578-584 (1977) and Yamamura et al., eds., Neurotransmitter Receptor Binding, Raven Press, N.Y. (1978), wherein homogenized limbic brain tissue is incubated with ^3 H-spiroperiodol and various concentrations of test compounds, filtered and washed and shaken with Hydrofluoro scintillation cocktail (National Diagnostics) and counted in a Packard 460CD scintillation counter.

The next assay deals with D2 receptor. As to conditions: prior art; cited from earlier work.
A further assay concerns 5-HT1A receptor. As to conditions: prior art; cited from earlier work.

What is called inhibition is how much of the control response was suppressed. For orientation: IC50 means the concentration that inhibits the measured activity by half.

SMILES strings stand for the structures.

T2 sequence (P61169 whole entry): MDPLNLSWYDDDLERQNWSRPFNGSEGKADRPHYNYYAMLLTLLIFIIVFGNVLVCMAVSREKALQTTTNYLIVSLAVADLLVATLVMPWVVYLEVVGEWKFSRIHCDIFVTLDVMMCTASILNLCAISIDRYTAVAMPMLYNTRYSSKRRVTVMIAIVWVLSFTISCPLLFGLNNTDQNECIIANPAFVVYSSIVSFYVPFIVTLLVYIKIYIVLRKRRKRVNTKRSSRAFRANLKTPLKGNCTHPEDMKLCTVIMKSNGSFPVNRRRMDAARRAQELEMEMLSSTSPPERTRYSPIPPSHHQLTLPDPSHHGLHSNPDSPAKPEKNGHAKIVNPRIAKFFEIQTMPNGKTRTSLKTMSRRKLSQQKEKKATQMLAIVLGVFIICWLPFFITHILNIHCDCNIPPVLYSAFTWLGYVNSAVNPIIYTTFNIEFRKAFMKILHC

Turning to `COc1ccccc1N1CCN(CC(C(=O)NNC(C)(C)C)c2ccccc2)CC1` (centres unmarked) [Example 26, N-Tert-butyl-3-[1-[4-(2-methoxy)phenyl]piperazinyl]-2-phenyl-propionhydrazide], in assay [1], the inhibition at 0.1 µM worked out at 48%, the inhibition at 1 µM stood at 96% and the half-inhibitory concentration (IC50) came to 118 nM.
Regarding `COc1ccccc1N1CCN(CC(C(=O)NC(C)(C)C)c2ccccc2)CC1` (centres unmarked) [Example 13, N-Tertiary-butyl 3-[4-(2-methoxyphenyl)piperazinyl]-2-phenylpropanamide], at D2 dopamine receptor (read-out: Affinity for D2 Receptor IC50), the half-inhibitory concentration (IC50) stood at 1740 nM.
As for `COc1ccccc1N1CCN(CC(C(=O)OC(C)(C)C)c2ccccc2)CC1` (centres unmarked) [Example 12, Tertiary-butyl 3-[1-[4-(2-methoxyphenyl)piperazinyl]]-2-phenylpropanoate], in assay [1], the inhibition at 0.1 µM turned out to be 86%, the inhibition at 1 µM stood at 98% and the IC50 turned out to be 11.8 nM.
On to `CC1(C(=O)NCCN2CCN(c3ncccn3)CC2)CCCCC1` [Example 19, N-2-(4-(2-Pyrimidinyl)-1-piperazinyl)ethyl-1-methylcyclohexylcarboxamide], for which, in assay [1], the inhibition at 0.1 µM is 67%.
As to `COc1ccccc1N1CCN(C[C@@H](C)NC(=O)C2(C)CCCCC2)CC1` [Example 20, (R)-N-[2-[4-(2-Methoxyphenyl)-1-piperazinyl]-1-methylethyl]-1-methylcyclohexane carboxamide], the inhibition at 0.1 µM in assay [1] turned out to be 100%.
With `COc1ccccc1N1CCN(CC(OC(=O)C(C)(C)C)c2ccccc2)CC1` (centres unmarked) [Example 23, 2,2-Dimethylpropanoic acid 2-(4-(2-methoxyphenyl)-piperazin-1-yl)-1-phenylethyl ester], in assay [1], the inhibition at 0.1 µM was determined as 27%, the inhibition at 1 µM is 78% and the IC50 was 270 nM.
As to `COc1ccccc1N1CCN(CCCOC(=O)C(C)(C)C)CC1` [Example 4, 2,2-Dimethylpropanoic acid 3-[4-(2-methoxyphenyl)-1-piperazinyl]propyl ester], the inhibition at 1 µM on D2 dopamine receptor came out at 99%; in assay [1], 98%.
Consider `COc1ccccc1N1CCN(CCNC(=O)NC2(C)CCCCC2)CC1` [Example 18, N-[2-[4-(2-Methoxyphenyl)-1-piperazinyl]ethyl]-N'-(1-methylcyclohexyl)urea], for which, in assay [1], the inhibition at 0.1 µM came out at 85%.
Same read-out and setting: next, `COc1ccccc1N1CCN(CCCCNC(=O)C(C)(C)C)CC1` [Example 2, N-[4-[4-(2-Methoxyphenyl)-1-piperazinyl]butyl]-2,2-dimethylpropanamide]: 100%.
For `CCCCN1C(=O)C2C(=O)N(CCCCN3CCN(c4ccccc4OC)CC3)C(=O)C(C1=O)C2(C)C` [umespirone], in the assay with D2 receptor, the “D2 receptor affinity (in words)” value is “high affinity”. The “5-HT1A receptor affinity/activity (in words)” value with 5-HT1A receptor is recorded as “high affinity”.
Consider `COc1ccccc1N1CCN(CCNC(=O)C2(C)CCCCC2)CC1` [Example 15, N-[2-[4-(2-Methoxyphenyl)-1-piperazinyl)ethyl]-1-methylcyclohexanecarboxamide], for which the inhibition at 0.1 µM in assay [1] was 98%.
Regarding `CC(C)(C)C(=O)OCCCN1CCN(c2ccccc2Cl)CC1` [Example 5, 2,2-Dimethylpropanoic acid 3-[4-(2-chlorophenyl)-1-piperazinyl]propyl ester], the figures for the inhibition at 1 µM (on D2 dopamine receptor; in assay [1]) were 58% and 98%, respectively.
On to `COc1ccccc1N1CCN(CCCCNC(=O)NC(C)(C)C)CC1` [Example 1, N-(1,1-Dimethylethyl)-N^1-[4-[4-(2-methoxyphenyl)-1-piperazinyl]butyl]urea], for which, in assay [1], the inhibition at 0.1 µM stood at 91%.
For `COc1ccccc1N1CCN(CC(OC(=O)NC(C)(C)C)c2ccccc2)CC1` (centres unmarked) [Example 24], in assay [1], the inhibition at 0.1 µM came out at 73%, the inhibition at 1 µM came out at 97% and the half-maximal inhibitory concentration (IC50) came to 20 nM.
Take `O=C1CC2(CCCC2)CC(=O)N1CCCCN1CCN(c2ncccn2)CC1` [buspirone, reference compound]: the “5-HT1A receptor affinity/binding (in words)” value in assay [1] is reported as “potent affinity”. Also, the “5-HT1A receptor affinity/activity (in words)” value in the assay with 5-HT1A receptor is “selective activity”.
For `COc1ccccc1N1CCN(CCOC(=O)C(C)(C)C)CC1` [Example 3, 2,2-Dimethylpropanoic acid 2-[4-(2-methoxyphenyl)-1-piperazinyl]ethyl ester], the inhibition at 1 µM at D2 dopamine receptor was found to be 89%; in assay [1], 86%.

The values are drawn from patent US4988814A, “Tertiary alkyl functionalized piperazine derivatives” (American Home Products Corp., priority 1989, dated 1991).
